Source: US10538497B2, “Compounds as indoleamine 2,3-dioxygenase inhibitors” (Merck Sharp & Dohme Corp., priority 2015, dated 2020)

Experiments:
[1] = biological target: T1, IDO1 (Homo sapiens (Human), UniProt P14902); experiment: IDO1 Human Whole Blood Assay; type: cell-based; conditions: LPS and IFNγ 100 ng/mL, kynurenine by LC/MS/MS
Description: IDO1 Human Whole Blood Assay
LPS and IFNγ was prepared in RPMI to a 10× of final conc. (1000 ng/mL), final concentration is 100 ng/mL.
Human whole blood was drawn in sodium heparin coated tubes from healthy internal donors. Two hundred fourty μL of blood was transferred to each of the wells of a v-bottom 96 well plate. Thirty μL of compound was transferred from intermediate dilution plate, and incubated for 15 min. […] from stimulants was then transferred to blood and mixed thoroughly. Plate was covered with breathable membrane and incubated at 37° C. for overnight (18 h).
On day 2 isotope labeled standard of kunurenine and tryptophan was made in water at 10× concentration and 30 μL was added to the blood at 3 μM final concentration. The assay plates were centrifuged at 300×G for 10 min with no brake to separate plasma from red blood cells. Sixty μL of plasma samples was removed without disturbing red blood cells. Plasma was diluted with RPMI in 1:1 ratio and proteins were precipitated out with two volume of Acetonitrile. The plates was centrifuged at 4000×G for 60 min. Twenty μL of supernatant was carefully transferred to a 384 well plate contain 40 μL of 0.1% formic acid in water and analysed by LC/MS/MS.
LC/MS/MS analyses were performed using Thermo Fisher's LX4-TSQ Quantum Ultra system. This system consists of four Agilent binary high-performance liquid chromatography (HPLC) pumps and a TSQ Quantum Ultra triple quadrupole MS/MS instrument. For each sample, 5 μL were injected onto an Atlantis T3 column column (2.1 mm×150 mm, 3 μm particle size) from Waters. The mobile phase gradient pumped at 0.8 mL/min was used to elute the analytes from the column at 25° C. The elution started at 0% B increasing linearly to 25% B at 6.5 min, holding at 25% for 1 min, re-equilibrating to 10 min. Mobile phase A consisted of 0.1% formic acid in water. Mobile phase B consisted of 0.1% of formic acid in acetonitrile. Data was acquired in positive mode using a HESI interface. The operational parameters for the TSQ Quantum Ultra instrument were a spray voltage of 4000 V, capillary temperature of 380° C., vaporizer temperature 400° C., shealth gas 60 arbitrary units, Aux gas 20 arbitrary units, tube lens 85 and collision gas 1.2 mTorr. SRM chromatograms of kynurenine (Q1: 209.2>Q3:94.0) and internal standard (Q1: 215.3>Q3:98.2) were collected for 90 sec. The peak area was integrated by Xcalibur Quan software. The ratios between the kynurenine generated in the reaction and 2D6-Kynurenine spiked-in internal standard were used to generate percentage inhibition and IC50 values. Compounds were titrated and IC50's were calculated by 4 parameter sigmoidal curve fitting formula.

[2] = biological target: T1, IDO1; experiment: IDO1 Cellular Assay in Hela Cells Stimulated with IFNγ; type: cell-based; conditions: Hela cells stimulated with IFNγ 100 ng/mL; read-out: IDO1 HELA Cell Assay, IC50
[3] = biological target: T1, IDO1; experiment: IDO1 Cellular Assay in Frozen HEK293 Cells Transiently Transfected with Human IDO1; type: cell-based; conditions: HEK293 cells transiently transfected with human IDO1; read-out: IDO1 HEK293 Cell Assay, IC50
[4] = biological target: T1, IDO1; experiment: IDO1 Enzyme Assay; conditions: HIS-tagged recombinant IDO1, 40 nM
[5] = read-out: IDO1 Enzyme Assay, IC50

T1 sequence (P14902 whole entry): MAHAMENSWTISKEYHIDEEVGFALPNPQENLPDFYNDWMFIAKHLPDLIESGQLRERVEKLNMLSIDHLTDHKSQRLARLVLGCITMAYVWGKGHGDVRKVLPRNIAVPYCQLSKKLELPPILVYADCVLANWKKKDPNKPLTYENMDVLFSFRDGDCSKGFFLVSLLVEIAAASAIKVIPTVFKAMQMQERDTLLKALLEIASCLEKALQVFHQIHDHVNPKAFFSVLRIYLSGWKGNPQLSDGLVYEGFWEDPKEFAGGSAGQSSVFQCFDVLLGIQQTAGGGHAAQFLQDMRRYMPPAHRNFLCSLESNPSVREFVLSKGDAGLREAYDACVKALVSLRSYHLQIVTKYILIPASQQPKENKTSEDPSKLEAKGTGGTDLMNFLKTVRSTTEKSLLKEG

Compound	IC50 [1]	IC50 [2]	IC50 [3]	IC50 [4, 5]	IC50 ([4]; IDO1 Enzyme Assay, IC50, nM)
OC[C@@H](O)CSc1nonc1/C(=N/O)Nc1ccc(F)c(Cl)c1 [Example 169, N-(3-chloro-4-fluorophenyl)-4-{[(2R)-2,3-dihydroxypropyl]sulfanyl}-N′-hydroxy-1,2,5-oxadiazole-3-carboximidamide]	1290 nM	191 nM	93.7 nM	52.8 nM	
COCCNS(=O)(=O)NCCSc1nonc1/C(=N/O)Nc1ccc(F)c(Br)c1 [Example 31, N-(3-bromo-4-fluorophenyl)-N′-hydroxy-4-((2-((N-(2-methoxyethyl)sulfamoyl)amino)ethyl)thio)-1,2,5-oxadiazole-3-carboximidamide]	643 nM	37.4 nM	10.2 nM	43.4 nM	
COC(=O)CNP(=O)(CCSc1nonc1/C(=N/O)Nc1ccc(F)c(Br)c1)NCC(=O)OC [Example 44, Dimethyl 2,2′-(((2-((4-(N-(3-bromo-4-fluorophenyl)-N′-hydroxycarbamimidoyl)-1,2,5-oxadiazol-3-yl)thio)ethyl)phosphoryl)bis(azanediyl))(Z)-diacetate]	130 nM	8.6 nM	17.5 nM	18.1 nM	
N#Cc1cc(N/C(=N\O)c2nonc2SC[C@@H]2CCC(=O)N2)ccc1F [Example 149, N-(3-cyano-4-fluorophenyl)-N′-hydroxy-4-({[(2S)-5-oxopyrrolidin-2-yl]methyl}sulfanyl)-1,2,5-oxadiazole-3-carboximidamide]	1050 nM	285 nM	120 nM	110 nM	
CN1C(=O)NC[C@H]1CSc1nonc1/C(=N/O)Nc1ccc(F)c(C#N)c1 [Example 146]	1400 nM	398 nM	222 nM	155 nM	
O=c1ccc(CSc2nonc2/C(=N/O)Nc2ccc(F)c(Br)c2)n[nH]1 [Example 35, N-(3-bromo-4-fluorophenyl)-N′-hydroxy-4-(((6-oxo-1,6-dihydropyridazin-3-yl)methyl)thio)-1,2,5-oxadiazole-3-carboximidamide]	923 nM	64.6 nM	77.7 nM	34.9 nM	
O=c1cccc(CSc2nonc2/C(=N/O)Nc2ccc(F)c(Br)c2)[nH]1 [Example 86, N-(3-bromo-4-fluorophenyl)-N′-hydroxy-4-{[(6-oxo-1,6-dihydropyridin-2-yl)methyl]sulfanyl}-1,2,5-oxadiazole-3-carboximidamide]	4120 nM	15.7 nM	41.6 nM	32.3 nM	
CC(=O)NCCSc1nonc1/C(=N/O)Nc1ccc(F)c(C#N)c1 [Example 37, N-(2-((4-(N-(3-cyano-4-fluorophenyl)-N′-hydroxycarbamimidoyl)-1,2,5-oxadiazol-3-yl)thio)ethyl)acetamide]	469 nM	59.4 nM	83.1 nM	104 nM	
O=C(CSc1nonc1/C(=N/O)Nc1ccc(F)c(Br)c1)NC[C@H](O)CO [Example 175, 2-({4-[N-(3-bromo-4-fluorophenyl)-N′-hydroxycarbamimidoyl]-1,2,5-oxadiaxol-3-yl}sulfanyl)-N-[(2S)-2,3-dihydroxypropyl]acetamide]	1720 nM	223 nM	281 nM	125 nM	

Now from value to molecule:

IC50 [1]	IC50 [2]	IC50 [3]	IC50 [4, 5]	IC50 ([4]; IDO1 Enzyme Assay, IC50, nM)	Compound
745 nM	131 nM	45 nM	51.9 nM		N[C@H](CO)CSc1nonc1/C(=N/O)Nc1ccc(F)c(Br)c1 [Example 125, 4-{[(2R)-2-amino-3-hydroxypropyl]sulfanyl}-N-(3-bromo-4-fluorophenyl)-N′-hydroxy-1,2,5-oxadiazole-3-carboximidamide]
891 nM	84.2 nM	29.4 nM		85.3 nM	CC(C)(O)C(O)CSc1nonc1/C(=N/O)Nc1ccc(F)c(Br)c1 (stereo not shown) [Example 30, N-(3-bromo-4-fluorophenyl)-4-((2,3-dihydroxy-3-methylbutyl)thio)-N′-hydroxy-1,2,5-oxadiazole-3-carboximidamide]
784 nM	61 nM	23.6 nM		81.3 nM	CC(C)(O)C(O)CSc1nonc1/C(=N/O)Nc1ccc(F)c(Br)c1 (stereo not shown) [Example 29, N-(3-bromo-4-fluorophenyl)-4-((2,3-dihydroxy-3-methylbutyl)thio)-N′-hydroxy-1,2,5-oxadiazole-3-carboximidamide]
827 nM	246 nM	155 nM	93.7 nM		CC(=O)N[C@H](CO)CSc1nonc1/C(=N/O)Nc1ccc(F)c(Br)c1 [Example 173, N-[(1R)-2-({4-[N-(3-bromo-4-fluorophenyl)-N′-hydroxycarbamimidoyl]-1,2,5-oxadiazol-3-yl}sulfanyl)-1-(hydroxymethyl)ethyl]acetamide]
